Biological target: T1, Accessory gene regulator protein A (Staphylococcus aureus, UniProt P0A0I7)
T1 sequence (P0A0I7 whole entry): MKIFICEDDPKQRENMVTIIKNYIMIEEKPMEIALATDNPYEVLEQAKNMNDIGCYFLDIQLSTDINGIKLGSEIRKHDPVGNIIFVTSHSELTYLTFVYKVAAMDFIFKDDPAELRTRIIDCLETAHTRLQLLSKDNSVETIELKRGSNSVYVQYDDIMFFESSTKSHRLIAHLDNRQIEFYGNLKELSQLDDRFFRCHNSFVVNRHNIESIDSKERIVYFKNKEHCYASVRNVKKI
Assay: Inhibition of Staphylococcus aureus RN6390B Agr-mediated RNA3 promoter activation measured up to 6 hrs by Northern blot analysis

IC50: 6 µM
Structure (SMILES): CCCCCCCCCC(=O)CC(=O)N[C@H]1CCOC1=O

— BindingDB's records for doi:10.1021/jm3014635 (University of Nottingham, 2013)
